Source: patent US5053329A, “Process for preparation of novel angiotensin II antagonists” (Merck & Co., Inc., priority 1991, dated 1991)

Molecular target: T1, angiotensin II receptor (rabbit aortae membrane preparation) (Oryctolagus cuniculus, UniProt P34976)
T1 sequence (P34976 1-359): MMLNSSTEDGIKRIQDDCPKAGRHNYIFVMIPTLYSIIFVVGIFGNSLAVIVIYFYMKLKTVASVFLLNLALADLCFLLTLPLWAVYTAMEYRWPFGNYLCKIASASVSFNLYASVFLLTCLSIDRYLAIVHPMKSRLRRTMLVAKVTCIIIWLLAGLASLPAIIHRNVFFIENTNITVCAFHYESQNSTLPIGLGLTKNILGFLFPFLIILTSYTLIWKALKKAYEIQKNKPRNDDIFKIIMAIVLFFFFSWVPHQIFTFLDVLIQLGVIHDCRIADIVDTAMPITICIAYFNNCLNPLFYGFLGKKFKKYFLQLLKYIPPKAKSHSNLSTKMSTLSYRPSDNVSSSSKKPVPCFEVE
Test: Receptor binding assay using rabbit aortae membrane preparation (displacement of 125I-Sar1 Ile8-angiotensin II)
Settings: result in words
Experimental: This assay is also referred to herein as the "IC50 " assay.
RECEPTOR BINDING ASSAY USING RABBIT AORTAE MEMBRANE PREPARATION
Three frozen rabbit aortae (obtained from Pel-Freeze Biologicals) were suspended in 5 mM Tris-0.25M Sucrose, pH 7.4 buffer (50 ml) homogenized, and then centrifuged. The mixture was filtered through a cheesecloth and the supernatant was centrifuged for 30 minutes at 20,000 rpm at 4° C. The pellet thus obtained was resuspended in 30 ml of 50 mM Tris-5 mM MgCl2 buffer containing 0.2% Bovine Serum Albumin and 0.2 mg/ml Bacitration and the suspension was used for 100 assay tubes. Samples tested for screening were done in duplicate. To the membrane preparation (0.25 ml) there was added ^125 I-Sar^1 Ile^8 -angiotensin II [obtained from New England Nuclear] (10 ul; 20,000 cpm) with or without the test sample and the mixture was incubated at 37° C. for 90 minutes. The mixture was then diluted with ice-cold 50 mM Tris-0.9% NaCl, pH 7.4 (4 ml) and filtered through a glass fiber filter (GF/B Whatman 2.4" diameter). The filter was soaked in scintillation cocktail (10 ml) and counted for radioactivity using Packard 2660 Tricarb liquid scintillation counter. […]

| A II antagonist activity by the IC50 assay | Compound |
| --- | --- |
| exhibit A II antagonist activity | CCCc1nc2c(CO)ccnc2n1Cc1ccc(-c2ccccc2-c2nnn[nH]2)cc1 [7-HOCH2 - oxidation product] |
| exhibit A II antagonist activity | CCCc1nc2c(C)c(O)cnc2n1Cc1ccc(-c2ccccc2-c2nnn[nH]2)cc1 [6-HO-oxidation product] |
